According to patent US10221163B2 (priority 2015, dated 2019):
Where two headings read alike, the source gives them in different places.

Key:
[1] = tested on: Pseudomonas aeruginosa MB9798 vs MB9799; conditions: ratio MITC95 PA_9798/MITC95 PA_9799
How it was run: (§1)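 Steps: add fixed imipenem and/or ceftazidime (usually CLSI breakpoint) and fixed AmpC-directed class A/C inhibitor to microbroth MIC wells; titrate MBL inhibitor; record concentration regaining susceptibility for each PAO1-derived strain; divide efflux+ by efflux− value.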

[2] = tested on: Pseudomonas aeruginosa efflux+ (MB9798), IMP-1; assay type: cell-based; conditions: concentration restoring susceptibility to imipenem at 2 μg/mL in the presence of a class A, C, D serine β-lactamase inhibitor closely related to relebactam
How it was run: as §1

[3] = tested on: Serratia marcescens expressing IMP-1 (CL5741); assay type: cell-based; conditions: with imipenem 1 μg/ml; 95% inhibition of bacterial growth
How it was run: (§2)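 Clinical isolates (E. coli NDM-1, S. marcescens IMP-1, K. pneumoniae VIM-1) were diluted 1:100 from saline suspension into 1.1×CAMHB and exposed to test compound with imipenem at 1 μg/ml. Plates were incubated at 35° C for 22 hours to 24 hours, and growth was read by absorbance.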

[4] = tested on: Escherichia coli expressing NDM-1 (CLB30005, CLB30016); assay type: cell-based; conditions: with imipenem 1 μg/ml; 95% inhibition of bacterial growth
How it was run: as §2

[5] = tested on: Klebsiella pneumoniae expressing VIM-1 (IHMA599644); assay type: cell-based; conditions: with imipenem 1 μg/ml; 95% inhibition of bacterial growth
How it was run: as §2

NDM-1 = NDM-1 (Klebsiella pneumoniae, UniProt C7C422); assay: biochemical; assay type: biochemical; conditions: fluorescence assay, CCF2-FA substrate, 1 pM enzyme, 2 hours at 25° C.; read-out: NDM-1 IC50
Sequence of NDM-1 (C7C422 whole entry, looked up, species assumed): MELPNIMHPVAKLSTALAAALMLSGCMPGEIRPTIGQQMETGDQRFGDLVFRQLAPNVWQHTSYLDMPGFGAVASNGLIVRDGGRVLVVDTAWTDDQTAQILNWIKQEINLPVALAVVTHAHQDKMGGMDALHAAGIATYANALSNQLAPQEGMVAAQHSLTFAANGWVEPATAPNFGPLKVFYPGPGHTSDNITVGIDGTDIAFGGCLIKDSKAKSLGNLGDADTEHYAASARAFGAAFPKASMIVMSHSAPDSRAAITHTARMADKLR
How it was run: (§3)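 Fluorescence assay, CCF2-FA substrate (cephalosporin core linking 7-hydroxycoumarin to fluorescein); inhibitor + MBL + substrate, 2 h, 25° C. IC50 by 4-parameter fit, semi-log plot.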

IMP-1 = IMP-1 (Serratia marcescens, UniProt P52699); assay: biochemical; assay type: biochemical; conditions: fluorescence assay, CCF2-FA substrate, 2 pM enzyme, 2 hours at 25° C.; read-out: IMP-1 IC50
Sequence of IMP-1 (P52699 whole entry, looked up, species assumed): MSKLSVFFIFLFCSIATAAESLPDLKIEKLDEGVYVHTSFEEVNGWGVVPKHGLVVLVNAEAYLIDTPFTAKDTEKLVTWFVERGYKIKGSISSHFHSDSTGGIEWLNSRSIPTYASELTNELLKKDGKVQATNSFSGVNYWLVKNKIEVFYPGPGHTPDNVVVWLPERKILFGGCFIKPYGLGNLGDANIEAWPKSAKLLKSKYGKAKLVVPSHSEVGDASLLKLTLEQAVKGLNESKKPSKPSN
How it was run: as §3

VIM-1 = VIM-1 (Pseudomonas aeruginosa (strain ATCC 15692 / DSM 22644 / CIP 104116 / JCM 14847 / LMG 12228 / 1C / PRS 101 / PAO1), UniProt A0A0F7KYQ8); assay: biochemical; conditions: CCF2-FA substrate, 30 pM enzyme, 2 hours at 25° C.
How it was run: as §3

[6] = tested on: Pseudomonas aeruginosa efflux− (MB9799), IMP-1; assay type: cell-based; conditions: concentration restoring susceptibility to imipenem at 2 μg/mL in the presence of a class A, C, D serine β-lactamase inhibitor closely related to relebactam
How it was run: as §1

[7] = fluorescence assay, read-out: VIM-1 IC50

Structure (SMILES) | Efflux ratio [1] | P. aeruginosa expressing IMP-1, efflux + (MB9798) MITC95 [2] [µM] | Serratia marcescens expressing IMP-1 (CL5741) MITC95 [3] [µM] | Escherichia coli expressing NDM-1 (CLB30016) MITC95 [4] [µM] | Klebsiella pneumoniae expressing VIM-1 (IHMA599644) MITC95 [5] [µM] | IC50 (NDM-1) [nM] | IC50 (IMP-1) [nM] | IC50 (VIM-1; [7]) [nM] | P. aeruginosa expressing IMP-1, efflux − (MB9799) MITC95 [6] [µM] | IC50 (VIM-1; VIM-1 IC50, fluorescence assay) [nM]
NCCNS(=O)(=O)c1ccc(-c2cccc(-c3n[nH]c(N)n3)c2)c(-c2nn[nH]n2)c1S(N)(=O)=O [Example 228, 3′-(5-amino-1H-1,2,4-triazol-3-yl)-N4-(2-aminoethyl)-2-(2H-tetrazol-5-yl)-[1,1′-biphenyl]-3,4-disulfonamide] | 1.00 | 1.563 | 1.563 | 0.7813 | 3.125 | 0.0864 | 0.562 | 0.15 | 1.563 | –
NCC(CN)NS(=O)(=O)c1ccc(-c2cccc(C3N=NC(N)=N3)c2)c(-c2nn[nH]n2)c1S(N)(=O)=O (stereo not drawn) [Example 229, 3′-(5-amino-3H-1,2,4-triazol-3-yl)-N4-(1,3-diaminopropan-2-yl)-2-(2H-tetrazol-5-yl)-[1,1′-biphenyl]-3,4-disulfonamide] | 0.50 | 1.563 | 3.125 | 0.7813 | 3.125 | 0.0308 | 0.173 | 0.12 | 3.125 | –
NC[C@@H](N)CNS(=O)(=O)c1ccc(-c2cccc(-c3n[nH]c(N)n3)c2)c(-c2nn[nH]n2)c1S(N)(=O)=O [Example 230, (R)-3′-(5-amino-1H-1,2,4-triazol-3-yl)-N4-(2,3-diaminopropyl)-2-(2H-tetrazol-5-yl)-[1,1′-biphenyl]-3,4-disulfonamide] | 1.00 | 1.563 | 1.563 | 1.563 | 3.125 | 0.0593 | 0.357 | 0.199 | 1.563 | –
Nc1nc(-c2cccc(-c3ccc(S(=O)(=O)N[C@@H]4CCNC4)c(S(N)(=O)=O)c3-c3nn[nH]n3)c2)n[nH]1 [Example 231, (R)-3′-(5-amino-1H-1,2,4-triazol-3-yl)-N4-(pyrrolidin-3-yl)-2-(2H-tetrazol-5-yl)-[1,1′-biphenyl]-3,4-disulfonamide] | 1.00 | 1.563 | 1.563 | 1.563 | 3.125 | 0.0288 | 0.376 | 0.115 | 1.563 | –
CN1CC[C@@H](NS(=O)(=O)c2ccc(-c3cccc4[nH]c(N)nc34)c(-c3nn[nH]n3)c2S(N)(=O)=O)C1 [Example 232, (R)-4-(2-amino-1H-benzo[d]imidazol-4-yl)-N^1-(1-methylpyrrolidin-3-yl)-3-(2H-tetrazol-5-yl)benzene-1,2-disulfonamide] | 2.00 | 1.563 | 0.7813 | 0.3906 | 1.563 | 0.0505 | 0.609 | – | 0.7813 | 0.16
Nc1nc2c(-c3ccc(S(=O)(=O)N[C@@H]4CCNC4)c(S(N)(=O)=O)c3-c3nn[nH]n3)cc(I)cc2[nH]1 [Example 234, (R)-4-(2-amino-6-iodo-1H-benzo[d]imidazol-4-yl)-N^1-(pyrrolidin-3-yl)-3-(2H-tetrazol-5-yl)benzene-1,2-disulfonamide] | 1.00 | 0.7813 | 0.7813 | 0.7813 | 0.7813 | 0.0157 | 0.14 | 0.0829 | 0.7813 | –
NS(=O)(=O)c1c(S(=O)(=O)N[C@@H]2CCNC2)ccc(-c2cccc3[nH]nnc23)c1-c1nn[nH]n1 [Example 235, (R)-4-(1H-benzo[d][1,2,3]triazol-4-yl)-N^1-(pyrrolidin-3-yl)-3-(2H-tetrazol-5-yl)benzene-1,2-disulfonamide] | 0.50 | 0.7813 | 0.7813 | 1.563 | 3.125 | 0.0308 | 0.44 | – | 1.563 | 0.105
NCCNS(=O)(=O)c1ccc(-c2cccc3[nH]nnc23)c(-c2nn[nH]n2)c1S(N)(=O)=O [Example 236] | 1.00 | 0.7813 | 0.7813 | 3.125 | 1.563 | 0.0647 | 0.544 | 0.13 | 0.7813 | –
C[C@H](CN)NS(=O)(=O)c1ccc(-c2cccc3[nH]nnc23)c(-c2nn[nH]n2)c1S(N)(=O)=O [Example 237] | 0.50 | 0.7813 | 1.563 | 3.125 | 1.563 | 0.0134 | 0.12 | 0.0552 | 1.563 | –
NS(=O)(=O)c1c(S(=O)(=O)N[C@@H]2CCNC2)ccc(-c2cccc3nonc23)c1-c1nn[nH]n1 [Example 238] | 4.00 | 3.125 | 0.7813 | 1.563 | 1.563 | 0.111 | 0.8 | 0.0653 | 0.7813 | –
NCCNS(=O)(=O)c1ccc(-c2cccc3nonc23)c(-c2nn[nH]n2)c1S(N)(=O)=O [Example 239] | 8.00 | 6.25 | 1.563 | 0.7813 | 3.125 | 0.439 | 1.06 | 0.113 | 0.7813 | –
Nc1nc2c(-c3ccc(S(=O)(=O)N[C@@H]4CNC[C@@H]4N)c(S(N)(=O)=O)c3-c3nn[nH]n3)cccc2[nH]1 [Example 240] | 1.00 | 0.7813 | 0.7813 | 0.1953 | 1.563 | 0.0569 | 0.745 | – | 0.7813 | 0.169
Nc1nc2c(-c3ccc(S(=O)(=O)N[C@H]4CNC[C@H]4N)c(S(N)(=O)=O)c3-c3nn[nH]n3)cccc2[nH]1 [Example 241] | 0.83 | 0.651 | 1.042 | 0.5208 | 1.302 | 0.0536 | 0.738 | – | 0.7813 | 0.182
CNc1ccc(-c2ccc(S(=O)(=O)N[C@@H]3CCNC3)c(S(N)(=O)=O)c2-c2nn[nH]n2)cn1 [Example 242] | 1.00 | 0.7813 | 0.7813 | 0.7813 | 1.563 | 0.0611 | 0.157 | 0.0841 | 0.7813 | –
